Molecules are shown by their SMILES. pIC50: −log10 of the molar value. Values after ≈ are worked out from the molar mass of the structure shown. Where two headings read alike, the source gives them in different places.

Data set [1] deals with human chronic myologenous leukemia cell strain K562. Put plainly: Anti-tumor effect in human K562 subcutaneous transplantation model. Conditions: day 28; Dasatinib 5 mg/kg alone, oral qd, 5 days on/2 days off, two cycles.
Data set [2] in a line: Evaluation of metabolic stability. The class given is in vitro ADME, human. To be noted: 0.2 mg/mL HLM, 0.1 μM test substance, 15 minutes at 37° C., with vs without NADPH production. The method in brief: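 Pooled human liver microsomes (0.2 mg/mL) in 0.1 M potassium phosphate pH 7.4 with EDTA, MgCl2 and an NADPH-generating system (NADP+, glucose-6-phosphate, G6PDH). Residual ratio by LC-MS/MS, comparing with versus without NADPH generation.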

Data set [3] has as its system Wnt signal. In words: Detection of Wnt signal (TOPglow luciferase reporter, LiCl-stimulated). Conditions: Homo sapiens; HEK293 clone carrying pNeo-TOP reporter; LiCl stimulation; luciferase luminescence; read-out: Test Example 1 IC50 (concentration required for inhibiting the Wnt signal activity by 50%). It is filed as cell-based. In a few lines:
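Stable HEK293 clone carrying a TOPglow TCF/Wnt-responsive luciferase reporter, stimulated with 80 mM LiCl in the diluted sample medium alongside compound; luminescence read with Bright-Glo 6 h after addition. IC50 derived from activity scaled between LiCl-only wells (100%) and wells lacking both LiCl and sample (0%).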
Background: Reporter assays use an easily measured gene product as a stand-in for the process of interest.

Data set [4] in a line: Evaluation of solubility (DMSO stock into PBS, HPLC-UV). The class given is physicochemical. To be noted: Dulbecco's phosphate-buffered saline pH 7, room temperature, about 15 minutes shaking, values greater than 200 μM regarded as 200 μM, read-out: Test Example 3 solubility. In a few lines: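 Kinetic solubility: 20 mM DMSO stock spiked into Dulbecco's PBS pH 7, shaken about 15 min at room temperature, then suction-filtered; filtrate quantified by HPLC-UV against a 200 μM DMSO standard. Values above 200 μM are capped at 200 μM.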

A short description of data set [5]: PAMPA test (parallel artificial membrane permeability assay). It is filed as in vitro ADME. To be noted: phosphate buffer pH 6.8, about 200 μM, about 5 hours, room temperature, read-out: Test Example 4 membrane permeation coefficient Pe. The method in brief:
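Compounds at about 200 μM in pH 6.8 phosphate buffer with about 1% DMSO on the donor side. Transport across a lipid-precoated PVDF membrane with shaking at 350 rpm, room temperature, about 5 h. Donor and acceptor concentrations measured by HPLC-UV; Pe (cm/s) calculated from these.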
Background: PAMPA measures passive passage across an artificial lipid membrane.

Setting [6] is: aqueous buffer, kinetic from dmso stock.

On to `Cc1nc(Nc2ncc(C(=O)Nc3c(C)cccc3Cl)s2)cc(N2CCN(CCO)CC2)n1` [Dasatinib, reference compound], for which, in data set [1], the “the number of individuals in which a tumor was not observed by visual judgment/total number of mice” value was 0/9.

`C=CCN1CC(=O)N2[C@@H](Cc3ccc(O)cc3F)C(=O)N(Cc3cccc(N4CC(N5CCN(CC)[C@H](C)C5)C4)n3)C[C@@H]2N1C(=O)NCc1ccccc1` [Example 21, (6S,9aS)-N-Benzyl-8-((6-(3-((3R)-4-ethyl-3-methylpiperazin-1-yl)azetidin-1-yl)pyridin-2-yl)methyl)-6-((2-fluoro-4-hydroxyphenyl)methyl)-4,7-dioxo-2-(prop-2-en-1-yl)-octahydro-1H-pyrazino[2,1-c][1,2,4]triazine-1-carboxamide]: in data set [2], the “Test Example 2 residual ratio of the test substance” value (shortened to “Test Example 2 residual ratio”) is 23%. Further, the pIC50 in data set [3] was 7.20. The solubility in data set [4] was 200 µM (≈ 148 µg/mL). Further, the Papp in data set [5] turned out to be 1.47 ×10⁻⁶ cm/s.

In the case of `C=CCN1CC(=O)N2[C@@H](Cc3c(F)cc(O)cc3F)C(=O)N(Cc3cccc(N4CC(N5CCN(CC)[C@@H](C)C5)C4)n3)C[C@@H]2N1C(=O)NCc1ccccc1` [Example 22, (6S,9aS)-N-Benzyl-6-((2,6-difluoro-4-hydroxyphenyl)methyl)-8-((6-(3-((3S)-4-ethyl-3-methylpiperazin-1-yl)azetidin-1-yl)pyridin-2-yl)methyl)-4,7-dioxo-2-(prop-2-en-1-yl)-octahydro-1H-pyrazino[2,1-c][1,2,4]triazine-1-carboxamide], the “Test Example 2 residual ratio” value in data set [2] was found to be 43%. Further, the pIC50 in data set [3] was 6.74. The solubility in data set [4] is 200 µM (≈ 152 µg/mL). Also, the Papp in data set [5] was found to be 0.57 ×10⁻⁶ cm/s.

As for `C=CCN1CC(=O)N2[C@@H](Cc3c(F)cc(O)cc3F)C(=O)N(Cc3cccc(N4CC(N5CCN(CC)[C@H](C)C5)C4)n3)C[C@@H]2N1C(=O)NCc1ccccc1` [Example 23, (6S,9aS)-N-Benzyl-6-((2,6-difluoro-4-hydroxyphenyl)methyl)-8-((6-(3-((3R)-4-ethyl-3-methylpiperazin-1-yl)azetidin-1-yl)pyridin-2-yl)methyl)-4,7-dioxo-2-(prop-2-en-1-yl)-octahydro-1H-pyrazino[2,1-c][1,2,4]triazine-1-carboxamide], the “Test Example 2 residual ratio” value in data set [2] turned out to be 38%. Moreover, the pIC50 in data set [3] is 6.72. The solubility in data set [4] (setting [6]) stood at 195 µM (≈ 148 µg/mL). Further, the Papp in data set [5] was determined as 0.43 ×10⁻⁶ cm/s.

Take `C=CCN1CC(=O)N2[C@@H](Cc3ccc(O)cc3)C(=O)N(Cc3ccc(F)c(N4CC(N5CCN(C)[C@H](C)C5)C4)n3)C[C@@H]2N1C(=O)NCc1ccccc1` [Example 24, (6S,9aS)-N-Benzyl-8-((6-(3-((3R)-3,4-dimethylpiperazin-1-yl)azetidine-1-yl)-5-fluoropyridin-2-yl)methyl)-6-((4-hydroxyphenyl)methyl)-4,7-dioxo-2-(prop-2-en-1-yl)-octahydro-1H-pyrazino[2,1-c][1,2,4]triazine-1-carboxamide]: the “Test Example 2 residual ratio” value in data set [2] is reported as 26%. In data set [3], the pIC50 was 7.11. For the same compound, the solubility in data set [4] was 200 µM (≈ 145 µg/mL). The Papp in data set [5] is 1.91 ×10⁻⁶ cm/s.

Turning to `C=CCN1CC(=O)N2[C@@H](Cc3ccc(O)cc3)C(=O)N(Cc3cccc(N4CC(N5CCN(C)[C@@H](C)C5)C4)n3)C[C@@H]2N1C(=O)NCc1ccccc1` [Example 27, (6S,9aS)-N-Benzyl-8-((6-(3-((3S)-3,4-dimethylpiperazin-1-yl)azetidin-1-yl)pyridin-2-yl)methyl)-6-((4-hydroxyphenyl)methyl)-4,7-dioxo-2-(prop-2-en-1-yl)-octahydro-1H-pyrazino[2,1-c][1,2,4]triazine-1-carboxamide], the “Test Example 2 residual ratio” value in data set [2] is on record as 57%. In addition, the pIC50 in data set [3] is 6.40. Moreover, in data set [4] (setting [6]), the solubility is 199 µM (≈ 141 µg/mL). Also, the Papp in data set [5] is 1.04 ×10⁻⁶ cm/s.

Regarding `C=CCN1CC(=O)N2[C@@H](Cc3ccc(O)cc3)C(=O)N(Cc3cccc(N4CC(N5CCN(C)[C@H](C)C5)C4)n3)C[C@@H]2N1C(=O)NCc1ccccc1` [Example 28, (6S,9aS)-N-Benzyl-8-((6-(3-((3R)-3,4-dimethylpiperazin-1-yl)azetidin-1-yl)pyridin-2-yl)methyl)-6-((4-hydroxyphenyl)methyl)-4,7-dioxo-2-(prop-2-en-1-yl)-octahydro-1H-pyrazino[2,1-c][1,2,4]triazine-1-carboxamide], the “Test Example 2 residual ratio” value in data set [2] was 55%. In data set [3], the pIC50 is 6.42. Besides, the solubility in data set [4] (setting [6]) was 198 µM (≈ 140 µg/mL). The Papp in data set [5] stood at 0.95 ×10⁻⁶ cm/s.

Take `C=CCN1CC(=O)N2[C@@H](Cc3ccc(O)cc3)C(=O)N(Cc3ccc(F)c(N4CC(N5CCC(N(C)C)CC5)C4)n3)C[C@@H]2N1C(=O)NCc1ccccc1` [Reference Example 1, (6S,9aS)-N-Benzyl-8-((6-(3-(4-(dimethylamino)piperidin-1-yl)azetidin-1-yl)-5-fluoropyridin-2-yl)methyl)-6-((4-hydroxyphenyl)methyl)-4,7-dioxo-2-(prop-2-en-1-yl)-octahydro-1H-pyrazino[2,1-c][1,2,4]triazine-1-carboxamide]: the “Test Example 2 residual ratio” value in data set [2] was found to be 54%. In addition, in data set [3], the pIC50 was 6.62. Besides, the solubility in data set [4] (setting [6]) turned out to be 193 µM (≈ 143 µg/mL). Moreover, the Papp in data set [5] was 0.62 ×10⁻⁶ cm/s.

For the compound `C=CCN1CC(=O)N2[C@@H](Cc3ccc(O)cc3F)C(=O)N(Cc3cccc(N4CC(N5CC[C@@H](N(C)C)C5)C4)n3)C[C@@H]2N1C(=O)NCc1ccccc1` [Reference Example 2, (6S,9aS)-N-Benzyl-8-((6-(3-((3R)-3-(dimethylamino)pyrrolidin-1-yl)azetidin-1-yl)pyridin-2-yl)methyl)-6-((2-fluoro-4-hydroxyphenyl)methyl)-4,7-dioxo-2-(prop-2-en-1-yl)-octahydro-1H-pyrazino[2,1-c][1,2,4]triazine-1-carboxamide], in data set [2], the “Test Example 2 residual ratio” value was found to be 51%. Besides, the pIC50 in data set [3] was 6.48. The solubility in data set [4] (setting [6]) came out at 195 µM (≈ 142 µg/mL). Moreover, the Papp in data set [5] was 0.65 ×10⁻⁶ cm/s.

Take `C=CCN1CC(=O)N2[C@@H](Cc3ccc(O)cc3F)C(=O)N(Cc3ccc(F)c(N4CC(N5CCC(N(C)C)CC5)C4)n3)C[C@@H]2N1C(=O)NCc1ccccc1` [Reference Example 3, (6S,9aS)-N-Benzyl-8-((6-(3-(4-(dimethylamino)piperidin-1-yl)azetidin-1-yl)-5-fluoropyridin-2-yl)methyl)-6-((2-fluoro-4-hydroxyphenyl)methyl)-4,7-dioxo-2-(prop-2-en-1-yl)-octahydro-1H-pyrazino[2,1-c][1,2,4]triazine-1-carboxamide]: the “Test Example 2 residual ratio” value in data set [2] was 50%. Besides, the pIC50 in data set [3] was 6.96. The solubility in data set [4] (setting [6]) was found to be 199 µM (≈ 151 µg/mL). In addition, in data set [5], the Papp was 0.55 ×10⁻⁶ cm/s.

As for `C=CCN1CC(=O)N2[C@@H](Cc3ccc(O)cc3F)C(=O)N(Cc3ccc(F)c(N4CC(N5C[C@@H]6C[C@H]5CN6C(C)C)C4)n3)C[C@@H]2N1C(=O)NCc1ccccc1` [Reference Example 4, (6S,9aS)-N-Benzyl-6-((2-fluoro-4-hydroxyphenyl)methyl)-8-((5-fluoro-6-(3-((1S,4S)-5-(propan-2-yl)-2,5-diazabicyclo[2.2.1]heptan-2-yl)azetidin-1-yl)pyridin-2-yl)methyl)-4,7-dioxo-2-(prop-2-en-1-yl)-octahydro-1H-pyrazino[2,1-c][1,2,4]triazine-1-carboxamide], the “Test Example 2 residual ratio” value in data set [2] is 34%. Also, the pIC50 in data set [3] is 6.82. The solubility in data set [4] (setting [6]) amounted to 198 µM (≈ 152 µg/mL). For the same compound, the Papp in data set [5] was determined as 0.68 ×10⁻⁶ cm/s.

On to `C=CCN1CC(=O)N2[C@@H](Cc3ccc(O)cc3F)C(=O)N(Cc3cccc(N4CC(N(C)CCN5CCOCC5)C4)n3)C[C@@H]2N1C(=O)NCc1ccccc1` [Reference Example 5, (6S,9aS)-N-Benzyl-6-((2-fluoro-4-hydroxyphenyl)methyl)-8-((6-(3-(methyl(2-(morpholin-4-yl)ethyl)amino)azetidin-1-yl)pyridin-2-yl)methyl)-4,7-dioxo-2-(prop-2-en-1-yl)-octahydro-1H-pyrazino[2,1-c][1,2,4]triazine-1-carboxamide], for which the “Test Example 2 residual ratio” value in data set [2] was 22%. For the same compound, in data set [3], the pIC50 was 6.89. The solubility in data set [4] (setting [6]) turned out to be 181 µM (≈ 137 µg/mL). Further, in data set [5], the Papp turned out to be 2.25 ×10⁻⁶ cm/s.

For `C=CCN1CC(=O)N2[C@@H](Cc3ccc(O)cc3F)C(=O)N(Cc3ccc(F)c(N4CC(N(C)CCN(C)C)C4)n3)C[C@@H]2N1C(=O)NCc1ccccc1` [Reference Example 6, (6S,9aS)-N-Benzyl-8-((6-(3-((2-(dimethylamino)ethyl)(methyl)amino)azetidin-1-yl)-5-fluoropyridin-2-yl)methyl)-6-((2-fluoro-4-hydroxyphenyl)methyl)-4,7-dioxo-2-(prop-2-en-1-yl)-octahydro-1H-pyrazino[2,1-c][1,2,4]triazine-1-carboxamide], the “Test Example 2 residual ratio” value in data set [2] was 28%. For the same compound, in data set [3], the pIC50 was 6.72. In addition, the solubility in data set [4] (setting [6]) came out at 190 µM (≈ 139 µg/mL). Further, the Papp in data set [5] was 1.7 ×10⁻⁶ cm/s.

As a reminder, the solubility is the dissolved amount per volume that the medium holds.

Values taken from patent US9174998B2, “(6S,9aS)-N-benzyl-6-[(4-hydroxyphenyl)methyl]-4,7-dioxo-8-({6-[3-(piperazin-1-yl)azetidin-1-yl]pyridin-2-yl}methyl)-2-(prop-2-en-1-yl)-octahydro-1H-pyrazino[2,1-c][1,2,4]triazine-1-carboxamide compound” (Eisai R&D Management Co., Ltd., priority 2013, dated 2015).
